# Data reported in article PMC12190640 (2025).
# Tested on: 37Cy3-74Cy5-riboSAM (RNA, riboswitch, Cy3-modified U at 37, Cy5-modified U at 74) GGGAAGAAAUAACAAUCAACGACGUAUCAUUGUGCCUCGCUUUCCGCGGGGCGAUAAGUCCUGAAGAAAGGGAUGAUAUGACAUAAGAACAUCGG
# Test: smFRET (TIRF)
# Settings: 50 mM Na+, 10 mM Tris-HCl pH 8.0, 25 °C, 0.5 mM SAM
compound,measurement,setting,value
C[S+](CC[C@H](N)C(=O)O)C[C@H]1O[C@@H](n2cnc3c(N)ncnc32)[C@H](O)[C@@H]1O (some centres unmarked),binding,"2 mM Mg2+, stable EFRET ~0.8 population 18.5% to 37.6%",yes
same,binding,"no Mg2+, no significant structural transition, same at 0.05 mM Mg2+",weak
